# Columns and labels:
# wheat [1] = experiment: Test A postemergence; assay type: in vivo, Triticum aestivum; conditions: 0 to 100 scale where 0 is no effect and 100 is complete control
# How it was run: (§1)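 Scoring: eye-based comparison with untreated controls, 0 for no effect through 100 for complete control, at about day 10. Treatments: directed soil spray preemergence; foliar spray postemergence on 2–10 cm plants at the one- to two-leaf stage. Medium: loam soil with sand.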
# barnyardgrass [2] = experiment: Test B flooded paddy test; assay type: in vivo, Echinochloa crus-galli; conditions: Flood, 250 g ai/ha; 0 to 100 scale where 0 is no effect and 100 is complete control
# How it was run: (§2)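 Plants at 2-leaf stage; pots flooded to 3 cm above soil and compound applied directly into paddy water, depth held throughout. After 13 to 15 days in greenhouse, visual rating versus controls on 0 (no effect) to 100 (complete control) scale.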
# pigweed [3] = experiment: Test A postemergence; assay type: in vivo, Amaranthus retroflexus; conditions: 0 to 100 scale where 0 is no effect and 100 is complete control
# How it was run: as §1
# velvetleaf [4] = experiment: Test A postemergence; assay type: in vivo, Abutilon theophrasti; conditions: 0 to 100 scale where 0 is no effect and 100 is complete control
# How it was run: as §1
# velvetleaf [5] = experiment: Test A preemergence; assay type: in vivo, Abutilon theophrasti
# How it was run: as §1
# corn [6] = experiment: Test A preemergence; assay type: in vivo, Zea mays
# How it was run: as §1
# giant foxtail [7] = experiment: Test A preemergence; assay type: in vivo, Setaria faberii
# How it was run: as §1
# morningglory [8] = experiment: Test A postemergence; assay type: in vivo, Ipomoea spp.; conditions: 0 to 100 scale where 0 is no effect and 100 is complete control
# How it was run: as §1
# corn [9] = experiment: Test A postemergence; assay type: in vivo, Zea mays
# How it was run: as §1
# pigweed [10] = experiment: Test A preemergence; assay type: in vivo, Amaranthus retroflexus
# How it was run: as §1
# morningglory [11] = experiment: Test A preemergence; assay type: in vivo, Ipomoea spp.
# How it was run: as §1
# wheat [12] = experiment: Test A preemergence; assay type: in vivo, Triticum aestivum
# How it was run: as §1
# barnyardgrass [13] = experiment: Test A postemergence; assay type: in vivo, Echinochloa crus-galli
# How it was run: as §1
# large (Lg) crabgrass [14] = experiment: Test A postemergence; assay type: in vivo, Digitaria sanguinalis
# How it was run: as §1
# sedge, umbrella = experiment: Test B flooded paddy test; assay type: in vivo, Cyperus difformis; conditions: Flood, 250 g ai/ha; 0 to 100 scale where 0 is no effect and 100 is complete control
# How it was run: as §2
# Heteranthera limosa = experiment: Test B flooded paddy test; assay type: in vivo; conditions: Flood, 250 g ai/ha; 0 to 100 scale where 0 is no effect and 100 is complete control
# How it was run: as §2
# giant foxtail [15] = experiment: Test A postemergence; assay type: in vivo, Setaria faberii; conditions: 0 to 100 scale where 0 is no effect and 100 is complete control
# How it was run: as §1
# barnyardgrass [16] = experiment: Test A preemergence; assay type: in vivo, Echinochloa crus-galli
# How it was run: as §1
# rice = experiment: Test B flooded paddy test; assay type: in vivo, Oryza sativa; conditions: Flood, 250 g ai/ha; 0 to 100 scale where 0 is no effect and 100 is complete control
# How it was run: as §2
# large (Lg) crabgrass [17] = experiment: Test A preemergence; assay type: in vivo, Digitaria sanguinalis
# How it was run: as §1
# [18] = 125 g ai/ha, 0 to 100 scale where 0 is no effect and 100 is complete control
# [19] = 500 g ai/ha, 0 to 100 scale, 0 no effect, 100 complete control, approx. 10 days
# [20] = 500 g ai/ha, 0 to 100 scale, 0 no effect, 100 complete control
compound,measurement,setting,value
N#Cc1cccc(Oc2ncc(Br)cn2)c1-n1cc(Cl)cn1 [Compound 71],"Plant response rating, Wheat",wheat [1]; 125 g ai/ha,10
same,"Plant response rating, Wheat",wheat [1]; 500 g ai/ha,40
same,"Plant response rating, Barnyardgrass",barnyardgrass [2],0
same,"Plant response rating, Pigweed",pigweed [3]; 125 g ai/ha,100
same,"Plant response rating, Pigweed",pigweed [3]; 500 g ai/ha,100
same,"Plant response rating, Velvetleaf",velvetleaf [4]; 125 g ai/ha,90
same,"Plant response rating, Velvetleaf",velvetleaf [4]; 500 g ai/ha,100
same,"Plant response rating, Velvetleaf",velvetleaf [5]; [18],70
same,Velvetleaf plant response rating,velvetleaf [5]; [19],100
same,"Plant response rating, Corn",corn [6]; [18],30
same,Corn plant response rating,corn [6]; [19],40
same,"Plant response rating, Foxtail, Giant",giant foxtail [7]; [18],100
same,"Foxtail, Giant plant response rating",giant foxtail [7]; [19],100
same,"Plant response rating, Morningglory",morningglory [8]; 125 g ai/ha,70
same,"Plant response rating, Morningglory",morningglory [8]; 500 g ai/ha,90
same,"Plant response rating, Corn",corn [9]; [18],30
same,"Plant response rating, Corn",corn [9]; [20],60
same,"Plant response rating, Pigweed",pigweed [10]; [18],100
same,Pigweed plant response rating,pigweed [10]; [19],100
same,"Plant response rating, Morningglory",morningglory [11]; [18],90
same,Morningglory plant response rating,morningglory [11]; [19],90
same,"Plant response rating, Wheat",wheat [12]; [18],20
same,Wheat plant response rating,wheat [12]; [19],40
same,"Plant response rating, Barnyardgrass",barnyardgrass [13]; [18],80
same,"Plant response rating, Barnyardgrass",barnyardgrass [13]; [20],90
same,"Plant response rating, Crabgrass, Large",large (Lg) crabgrass [14]; [18],70
same,"Plant response rating, Crabgrass, Large",large (Lg) crabgrass [14]; [20],100
same,"Plant response rating, Sedge, Umbrella","sedge, umbrella",70
same,"Plant response rating, Ducksalad",Heteranthera limosa,0
same,"Plant response rating, Foxtail, Giant",giant foxtail [15]; 125 g ai/ha,80
same,"Plant response rating, Foxtail, Giant",giant foxtail [15]; 500 g ai/ha,90
same,"Plant response rating, Barnyardgrass",barnyardgrass [16]; [18],60
same,Barnyardgrass plant response rating,barnyardgrass [16]; [19],100
same,"Plant response rating, Rice",rice,30
same,"Plant response rating, Crabgrass, Large",large (Lg) crabgrass [17]; [18],100
same,"Crabgrass, Large plant response rating",large (Lg) crabgrass [17]; [19],100
